# Measurements: PMC11123841, “Discovery and Synthesis of Hydroxy-L-Proline Blockers of the Neutral Amino Acid Transporters SLC1A4 (ASCT1) and SLC1A5 (ASCT2)” (Molecules, 2024)
# “Also recorded” adds a separate entry of the source.
# Legend:
# SLC38A1 (ATA1) = molecular target: T1, SLC38A1 (ATA1) (Homo sapiens, UniProt Q9H2H9); test: TEVC electrogenic coupled currents in oocytes; type: cell-based; conditions: 100 µM L-alanine, 3 µM BPOHP
# T1 construct: expressed in transfected cells; host or cells: Xenopus laevis oocytes (cRNA injection)
# T1 sequence (Q9H2H9 1-487): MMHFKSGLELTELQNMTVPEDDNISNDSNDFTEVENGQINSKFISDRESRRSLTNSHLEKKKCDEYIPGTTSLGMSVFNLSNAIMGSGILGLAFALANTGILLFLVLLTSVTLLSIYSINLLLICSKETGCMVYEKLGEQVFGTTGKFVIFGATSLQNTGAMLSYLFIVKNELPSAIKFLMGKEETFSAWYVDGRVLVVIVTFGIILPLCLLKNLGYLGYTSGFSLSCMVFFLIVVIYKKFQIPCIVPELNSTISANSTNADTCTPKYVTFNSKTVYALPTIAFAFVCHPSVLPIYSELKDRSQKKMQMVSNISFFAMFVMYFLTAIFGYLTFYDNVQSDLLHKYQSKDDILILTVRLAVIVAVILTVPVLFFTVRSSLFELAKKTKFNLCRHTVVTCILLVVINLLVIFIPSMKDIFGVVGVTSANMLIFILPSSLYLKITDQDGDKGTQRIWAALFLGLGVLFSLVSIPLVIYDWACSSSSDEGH
# Experimental: (§1) BPOHP activity was evaluated against the glutamate transporters paralogs within the SLC1A gene family (SLC1A 1–3) as well as at neutral amino acid transporters that share common ligand substrates with the SLC1 family including SLC38A1,2, and 4 (ATA1, ATA2, ATA3) and heteromeric transporters SLC7A10+SLC3A2 (asc-1/4f2). […] Finally, radiolabeled [^3H]D-serine uptake was used to assess the electroneutral SLC7A10+SLC3A2 transporter, in which 10 µM BPOHP had no effect (Figure S3).
# (§2) Uptake was halted by washing 3 times with 4 °C ND96 buffer. Oocytes were then lysed in 0.1% Triton X-100, and radioactivity was counted via liquid scintillation. Dose response curves were generated by fitting fractional inhibition (I) to the expression I = Imax × [inhibitor]/([inhibitor] + IC50).
# (§3) Two-electrode voltage clamp (TEVC) transporter currents were recorded with a GeneClamp 500 amplifier and Digidata 1320A analog–digital interface (Molecular Devices, San Jose, CA, USA). […] Data were acquired with Axograph (v1.7.6) and LabChart (v7) and analyzed with Kaleidagraph software (v4.1) (Synergy, Reading, PA, USA). Uncoupled anion currents associated with the transport of substrate and block of SLC1A4 or SLC1A5 mediated leak conductance were recorded in the presence of Ringer with 50% substitution of NaCl by NaSCN to amplify the non-transported anion conductance. […]
# SLC38A4 (ATA3) = molecular target: T2, SLC38A4 (ATA3) (Homo sapiens, UniProt Q969I6); test: TEVC electrogenic coupled currents in oocytes; type: cell-based; conditions: 100 µM L-alanine, 3 µM BPOHP
# T2 construct: expressed in transfected cells; host or cells: Xenopus laevis oocytes (cRNA injection)
# T2 sequence (Q969I6 1-547): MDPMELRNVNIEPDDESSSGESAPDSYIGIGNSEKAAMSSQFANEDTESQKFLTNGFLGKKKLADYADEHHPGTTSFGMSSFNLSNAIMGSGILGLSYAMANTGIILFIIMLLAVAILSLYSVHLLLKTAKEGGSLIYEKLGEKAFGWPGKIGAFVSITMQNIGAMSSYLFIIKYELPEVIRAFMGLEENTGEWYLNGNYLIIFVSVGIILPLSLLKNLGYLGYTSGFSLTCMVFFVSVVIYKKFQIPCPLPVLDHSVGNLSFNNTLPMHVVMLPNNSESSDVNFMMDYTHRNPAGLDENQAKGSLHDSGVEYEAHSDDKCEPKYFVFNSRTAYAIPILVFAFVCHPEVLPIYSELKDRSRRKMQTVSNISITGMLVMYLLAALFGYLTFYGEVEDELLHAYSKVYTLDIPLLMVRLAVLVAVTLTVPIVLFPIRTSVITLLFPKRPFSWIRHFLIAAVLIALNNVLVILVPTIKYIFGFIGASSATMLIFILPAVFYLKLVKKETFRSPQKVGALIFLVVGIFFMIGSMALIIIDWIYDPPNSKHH
# Experimental: as §1, §2, §3
# [1] = tested on: glutamate transporters (SLC1A 1–3); test: Inhibition of the glutamate transporters, general statement; type: cell-based, human
# Experimental: as §1
# High resolution structural models for SLC1A4 and SLC1A5 have been developed. These models reinforce our SLC1A5 homology model derived from the archaeal glutamate transporter. […] While preparing this manuscript, inhibitors of SLC1A5 of a similar design to our alkoxy-hydroxyprolines were reported with ligand-bound high-resolution EM models. These reported EM models help validate our docking solutions with respect to mode of binding within our homology model. We emphasize that our discoveries and modeling of these hydroxyproline/AHPC inhibitors targeting SLC1A4 and SLC1A5, as documented in the public domain [66, 67], predates these reports and is yet to be properly referenced/cited. […] This nonselective SLC1 inhibition, observed with BPOHP, may be attributed to entropic contributions resulting from the biphenyl moiety occupying an adjacent hydrophobic pocket.
smiles,measurement,setting,value
O=C(O)[C@H]1NC[C@@H](OCc2ccc(-c3ccccc3)cc2)[C@@H]1O [14e],block of L-alanine current,SLC38A1 (ATA1),no effect; also recorded: no discernible block; also recorded: no inhibition was detected
same,block of L-alanine current,SLC38A4 (ATA3),no effect; also recorded: no discernible block; also recorded: no inhibition was detected
same,inhibition of the glutamate transporters,[1],low micromolar range
